The values below come from PMC11881554 (Antimicrobial Agents and Chemotherapy, 2025).

For orientation: MIC means the lowest concentration found to suppress growth. Usually half-life stands for the time in which the quantity being followed falls by half. A low value points to rapid decline. As usually defined, the AUC(0-inf) is total exposure, with the tail of the curve extrapolated. What is called clearance is the volume of plasma or blood freed of the substance per unit of time. The low end stands for a low capacity for elimination, the high end for a high capacity for elimination.

The test system of series [1] is K. pneumoniae Kpn 255 (TEM-1, SHV-2). Put plainly: MIC by agar dilution, Kpn 255. Type of series: cell-based. The conditions noted are these: Klebsiella pneumoniae, MB076 fixed at 4 µg/mL in the combination. As to the method: (§1) Cation adjusted (25.0 mg/L Ca^2+ and 12.5 mg/L Mg^2+) Mueller-Hinton broth (CAMHB; BBL Microbiology Systems, Cockeysville, MD) and agar (CAMHA; Becton, Dickinson and Company, Sparks, MD) were used for susceptibility testing and for all in vitro experiments. […] All antibiotic solutions were filter sterilized using a 0.22-μm-pore-size filter (Fisher Scientific, Pittsburgh, PA).
(In agar dilution, organisms are placed on agar that contains the substance at set levels.)

For series [2], the system named is K. pneumoniae Kpn original KPC-2. As to the kind of experiment: MIC by agar dilution, Kpn original KPC-2. The format is cell-based. The conditions noted are these: Klebsiella pneumoniae, MB076 fixed at 4 µg/mL in the combination. Here is the method:
as §1

The test system of series [3] is K. pneumoniae Kpn266 (SHV-5). Put plainly: MIC by agar dilution, Kpn266. The following applies: Klebsiella pneumoniae, MB076 fixed at 4 µg/mL in the combination. The format is cell-based. As to the method:
as §1

In series [4] the test system is K. pneumoniae Kpn ST258 C3 (KPC-3). Put plainly: MIC by agar dilution, Kpn ST258 C3. The format is cell-based. The conditions noted are these: Klebsiella pneumoniae, MB076 fixed at 4 µg/mL in the combination. Here is the method:
as §1

For series [5], the system named is K. pneumoniae KPC-Kpn-1 (KPC-3, SHV-12, TEM-1). Put plainly: MIC by agar dilution, KPC-Kpn-1. Type of series: cell-based. The following applies: Klebsiella pneumoniae, inhibitor (MB076 or S02030) fixed at 4 µg/mL in the combination. As to the method: as §1
Series [6] relates to E. coli ATCC BAA202 (SHV-1). As to the kind of experiment: MIC by agar dilution, E. coli ATCC BAA202. The format is cell-based. The following applies: Escherichia coli, ATCCBAA202, MB076 fixed at 4 µg/mL in the combination. Here is the method: as §1
The test system of series [7] is K. pneumoniae isolate KPC-Kpn-1. As to the kind of experiment: Neutropenic mouse lung infection model (intranasal challenge). The format is in vivo. The following applies: 24 h post treatment; treatment from 2 h post infection; cefepime 127.5 mg/kg/day SC, MB076 100 mg/kg/day IV (25 mg/kg every 6 h); neutropenic mice, n = 5. Here is the method:
(§2) A 0.2 mL aliquot of a single-use glycerol stock of the KPC-Kpn isolate (at −80°C) was used to seed 20 mL brain heart infusion (BHI) and then incubated at 35–37°C with shaking (120 rpm) for 8 h. Bacterial cells in the 20 mL aliquot were pelleted by centrifugation (3,500 × g) for 15 min and then resuspended in 10 mL cold phosphate buffer saline (PBS). The optical density, OD620 nm, was measured and used to guide dilution. The PBS suspensions were stored on ice for no more than 2 h prior to infecting the animals. The bacterial count in the challenge organism suspension was enumerated by dilution plating to CAMH agar plates followed by 20–24 h incubation.
Eleven- to 12-week-old BALB/c mice obtained from Charles River Laboratories (Raleigh, NC) were allowed to acclimatize for at least 1 week prior to initiating the studies. All animal procedures were approved by the Institutional Animal Care and Use Committee at the University of North Carolina at Chapel Hill (IACUC ID: 21-125.0), and all experiments were performed in accordance with institutional guidelines for animal experiments. […]
Five mice/group were sacrificed by overdose of inhaled 5% isoflurane at 26 h post inoculation. […] Lung bacterial counts were analyzed using a one-way ANOVA followed by post-hoc Tukey multiple comparison test (GraphPad Prism 10.1, GraphPad Software Inc., San Diego, USA). […]

Series [8] relates to K. pneumoniae KPC-Kpn-1. Put plainly: Survival of mice infected intravenously via the tail vein. The format is in vivo. The following applies: male C57BL/6, 7 per group, 2.1 × 10^8 CFU/mouse IV; 100 mg/kg/dose at infection, 18 and 24 h; combination at 1:4 molar ratio. Here is the method:
as §2
Seven male C57BL/6 mice per treatment group were infected intravenously via the tail-vein by injecting a prepared inoculum of KPC-Kpn-1, input CFU = 2.1 × 10^8 CFU/mouse, contained in a volume of 0.25 mL per animal. […] Doses were repeated the following morning and afternoon (18 and 24 h after infection). Survival was evaluated 24 h post-treatment. Kaplan-Meier survival curves were generated using log-rank test (GraphPad Prism 10.1, GraphPad Software Inc., San Diego, USA). A P value of <0.05 was considered statistically significant.

Series [9] concerns K. pneumoniae Kpn ST258 B5 (KPC-2). Put plainly: MIC by agar dilution, Kpn ST258 B5. Type of series: cell-based. The conditions noted are these: Klebsiella pneumoniae, MB076 fixed at 4 µg/mL in the combination. Here is the method: as §1
Series [10] concerns K. pneumoniae Kpn ST17 (KPC-2, TEM, SHV, CTX-M group 1). As to the kind of experiment: MIC by agar dilution, Kpn ST17. Type of series: cell-based. The conditions noted are these: Klebsiella pneumoniae, MB076 fixed at 4 µg/mL in the combination. As to the method:
as §1

The conditions of series [11]: healthy adults, multidose cefepime and zidebactam; cited from earlier work.
In series [12] the test system is K. pneumoniae Kpn 34700 (CTX-M-15, SHV, TEM). As to the kind of experiment: MIC by agar dilution, Kpn 34700. Type of series: cell-based. The conditions noted are these: Klebsiella pneumoniae, MB076 fixed at 4 µg/mL in the combination. As to the method: as §1
Details of series [13]: method as in PMID 37358467. The following applies: cited from earlier work.
In series [14] the test system is K. pneumoniae KPC-Kpn-1. As to the kind of experiment: Static time-kill assay in CAMHB. The format is cell-based. The conditions noted are these: in combination with cefepime. Here is the method: as §1
Series [15] can be described thus: Plasma pharmacokinetics of MB076 after single IV dose in thigh-infected mice. The conditions noted are these: for half-life / AUC(0-t) / AUC(0-inf) / C0 / clearance / Vd: plasma; for half-life: iv; for Vd: read-out: Vss. The format is in vivo, mouse. Here is the method:
A single dose PK study was conducted in mice infected with K. pneumoniae AR-BANK#0098 (producing KPC-2, OXA-9, and TEM-1) employing a thigh infection model. Escalating doses of MB076 (12.5, 25, 50, and 100 mg/kg) were intravenously administered via the tail vein. Following this terminal blood sampling via cardiac puncture was performed at eight different time points 5, 15, 30, 60, 90, 120, 180, and 240 min for each dose level. Plasma was separated by centrifugation at 4,000g for 10 min at 4°C and stored at −80°C until MB076 quantification was performed by LC/MS-MS bioanalysis.
WinNonlin software (Phoenix Build 8.3.1.5014) was employed to perform noncompartmental analysis (NCA) to calculate the PK parameters like elimination half-life (t1/2), area under the concentration–time curve over the duration of study (AUC0–last), and infinity (AUC0–inf), and the peak drug concentration (C0), volume of distribution (V) and clearance (CL). The AUCs for the different MB076 dose levels were calculated and compared to assess for any dose related non-linearity with increasing dose.
Terminal blood collection from cardiac puncture was conducted under CO2 euthanasia. Blood, 0.3–0.4 mL, was drawn into tubes coated with K2EDTA, mixed gently and kept on ice, and centrifuged at 12,000 × g for 5 min at 4°C within 1 h of collection. The plasma was harvested and stored at −80°C until further processing.
A 20 µL aliquot of each plasma sample was transferred to a 96 well plate. A 500 µL aliquot of 0.01 ng/µL internal standard (IS), Oxybutynin, in ACN/FA = 95/5, was added to each tube except for the double blank and carryover controls. A 500 µL aliquot of ACN/FA = 95/5, without oxybutynin, was added to the double blank and carryover assay wells. The equilibrated mixture was vortexed for 1 min and then centrifuged at 4,000 rpm for 10 min at 20°C to precipitate protein. After centrifugation, 500 µL of the supernatant was transferred to a new well of the 96 well plate for LC-MS/MS analysis. Plasma samples from treatment groups and the calibration curve samples were processed on the same test occasion using the same procedure. The calibration curve samples were generated by spiking aliquots of drug-free plasma with an MB076 dilution. The quality control (QC) samples, QH (high), QM (medium), and QL (low) were each assayed in duplicate.
LC-MS/MS was conducted with a SCIEX Triple Quad 5500 + mass spectrometer. Method development was conducted to determine appropriate conditions for LC-MS/MS analysis of MB076. A titration of a stock solution was performed to correlate peak areas and the corresponding concentration. The reportable linear range of the assay was determined along with the lower and upper limits of quantitation (LLOQ and […]).
To develop the bioanalytical method, MB076 was prepared in ACN/H2O = 50/50 at 1 ng/µL. Full scan MS analyses were conducted, and total ion current chromatograms and corresponding mass spectra were reviewed for MB076 in both positive and negative ionization modes. The precursor ions for MS/MS were selected from either the positive or the negative mass spectrum, as a function of the respective ion abundance. In addition, product ion MS/MS analysis was performed to determine the appropriately selected fragmentation reaction for use in quantitative analysis. The final reaction monitoring parameters were chosen to maximize the ability to quantify the test compound when present within a complex mixture of components. Following the identification of the specific multiple reaction monitoring (MRM) transition to be used for each test compound, the detection parameters were optimized. MB076 was observed as one charged ion [M + H]+ and the MRM chosen was m/z = 374.0 to m/z = 243.2 for MB076 in electrospray positive ion mode.
The chromatographic conditions used for LC-MS analysis were identified by injection and separation of the analyte on a suitable LC column followed by adjustment of the gradient conditions as necessary. […]

Setting [16] is: mouse, 12.5 mg/kg single IV, thigh-infected mice.
Setting [17] is: mouse, 25 mg/kg single IV, thigh-infected mice.
Setting [18] is: mouse, 50 mg/kg single IV, thigh-infected mice.
Setting [19] is: mouse, 100 mg/kg single IV, thigh-infected mice.

Where two headings read alike, the source gives them in different places.

With `CO/N=C(\C(=O)N[C@@H]1C(=O)N2C(C(=O)[O-])=C(C[N+]3(C)CCCC3)CS[C@H]12)c1csc(N)n1` [FEP, cefepime], the MIC amounted to 4 µg/mL in series [1]; 64 µg/mL in [2]; 2 µg/mL in series [3]; 32 µg/mL in series [4]; 32 µg/mL in [5]; 1 µg/mL in [6]. The values for the MIC in series [9], in [10] and in [12] were 32 µg/mL, 8 µg/mL and 32 µg/mL, respectively. Besides, in series [7], the “log10 CFU reduction in lung compared to the no treatment control group” value is 1.07 log10 CFU. Also, the “survival outcome of all mice in the group” value in the series with K. pneumoniae KPC-Kpn-1 [8] is reported as “died”. Moreover, the “median AUCELF/AUCplasma” value in series [11] is recorded as 38%.
`Nc1nnc(SCC(=O)N[C@@H](Cn2cc(C(=O)O)nn2)B(O)O)s1` [MB076]: the “t1/2 (plasma stability)” value in series [13] is 1740 min. Moreover, in the series with K. pneumoniae KPC-Kpn-1 [14], the “inhibitor concentration achieving sustained bacterial killing” value turned out to be 4 µg/mL. Moreover, the reduction in clearance in series [15] (100 mg/kg compared to 12.5 mg/kg) was 1.7 fold. Besides, in series [15] (from 12.5 to 100 mg/kg dose), the “increase of dose-normalized AUC” value was “twofold”. Further, the extraction ratio in series [15] (hepatic blood flow in mouse 5.4 L/h/kg) is recorded as 0.33. Further, the clearance classification result in [15] (mouse, IV) is on record as “low clearance compound”. Moreover, the half-life is 36.6 min in [15] (mouse, 25 mg/kg, 25 mg/kg single IV, thigh-infected mice); 25.8 min in series [15] (mouse, 50 mg/kg, 50 mg/kg single IV, thigh-infected mice); 25.8 min in series [15] (mouse, 100 mg/kg, 100 mg/kg single IV, thigh-infected mice). The AUC(0-t) in [15] (mouse, single IV 12.5 to 100 mg/kg, infected mice, read-out: AUClast, range over the dose levels) is 7100 to 103000 ng·h/mL; in series [15] (mouse, 12.5 mg/kg single IV, thigh-infected mice, read-out: AUClast) it was 7100 ng·h/mL; in series [15] (mouse, 25 mg/kg single IV, thigh-infected mice, read-out: AUClast) it was 17600 ng·h/mL; in series [15] (mouse, 50 mg/kg single IV, thigh-infected mice, read-out: AUClast), 39000 ng·h/mL; in [15] (mouse, 100 mg/kg single IV, thigh-infected mice, read-out: AUClast) it was 103000 ng·h/mL. Moreover, the “dose linearity of plasma PK” value in [15] (mouse, single IV) is given as “linear PK in plasma up to 50 mg/kg dose”. Besides, the AUC(0-inf) came to 7200 ng·h/mL in series [15] (setting [16]), 17800 ng·h/mL in series [15] (setting [17]), 31900 ng·h/mL in series [15] (setting [18]) and 104000 ng·h/mL in [15] (setting [19]). Further, the C0 worked out at 35.6 µg/mL in [15] (setting [16]), 84 µg/mL in series [15] (setting [17]), 207 µg/mL in series [15] (setting [18]) and 638 µg/mL in series [15] (setting [19]). Moreover, the clearance in series [15] (setting [16]) was 29.1 mL/min/kg; in [15] (setting [17]), 23.4 mL/min/kg; in series [15] (setting [18]), 21.3 mL/min/kg; in series [15] (setting [19]) it was 16.1 mL/min/kg. Also, the Vd in series [15] (setting [16]) turned out to be 0.65 L/kg; in series [15] (setting [17]), 0.8 L/kg; in series [15] (setting [18]), 0.35 L/kg; in [15] (setting [19]) it was 0.21 L/kg.
Consider `O=C(Cc1cccs1)N[C@@H](Cn1cc(C(=O)O)nn1)B(O)O` [S02030], for which, in series [13], the “t1/2 (plasma stability)” value was 540 min. Also, the “inhibitor concentration achieving sustained bacterial killing” value in the series on K. pneumoniae KPC-Kpn-1 [14] came out at 8 µg/mL.
